# Test results reported in patent publication US20220339260A1, “METHOD FOR PRODUCING INSULIN-PRODUCING CELL USING DIHYDROINDOLIZINONE DERIVATIVES” (TOKYO INSTITUTE OF TECHNOLOGY, priority 2019, published 2022).
# Tests used:
# [1] = tested on: Toe human iPS cells; test: Differentiation of Toe human iPS cells into iPS-β cells, monolayer culture, protocol #1; assay type: cell-based; settings: treatment from later stage of stage 3 to initial stage of stage 5
# Method: The Toe human iPS cells were seeded in CellBIND 6-well (CORNING, CLS3335) cell culture plate coated with synthemax II, and differentiated into primitive gut tube cells by the previously described method (Shahjalal et al., 2014). The cells were dissociated with TrypLE Select (Thermo Fisher, 12563011) and cryopreserved in BanBanker (Nippon genetics) at a density of 1.0 to 2.0×10^7 cells/mL until use. One day before compound addition, the cells were thawed in a medium for stage 3 (DMEM (high glucose), 0.25 μM SANT1 (Wako, 197-16351), 0.1 μM LDN193189 (Stemgent, 04-0074), 10 μM SB431542, 2 μM retinoic acid, 1% B27-free serum supplement (Life Technologies, 17504044), and seeded at 150,000 cells per well in CellBIND 96-well (Corning, 3340) cell culture plated coated with synthemax II. The cells were cultured for 1 day in a medium for stage 3 containing a test compound or a negative control (0.01% DMSO). The cells were further cultured for 2 days and 1 day in media for stages 4 and 5, respectively, containing the test compound or the negative control. On the next day, the cells were fixed in 4% paraformaldehyde for analysis using a high-content imager.
# [2] = tested on: RPChiPS771 iPSC; test: Differentiation of RPChiPS771 iPS cells, sphere culture, protocol #1; assay type: cell-based, human; settings: 0.25 μM, methionine depletion 5 hours
# Method: (§1) The RPChipS771 cells were maintained as described above, and differentiated according to protocol #1. Briefly, on day 0, the cells were dissociated with TrypLE Select, transferred at a concentration of 1×10^6 cells/mL in Essential 8 medium to a low-attachment 6-well plate (Greiner, 657185), and cultured on a rotary shaker (95 rpm). On day 1, the medium was replaced with methionine-depleted medium KA01 (Ajinomoto), and the cells were cultured for 5 hours. The medium was replaced with differentiation medium 1 (DMEM (high glucose), L-Gln, NEAA, 0.01 mM β-mercaptoethanol, 100 ng/mL activin A, B27 supplement, 3 μM CHIR99021), and the cells were cultured for 1 day (stage 1-1). Then, the medium was replaced with medium 1 free from CHIR99021, and the cells were cultured for 2 days (stage 1-2). […]
# [3] = tested on: Ff-I01s01; test: Differentiation of Ff-I01s01 iPS cells, sphere culture, protocol #2; assay type: cell-based, human
# Method: The FfI-01s01 cells were maintained as described above and then differentiated according to protocol #2. Briefly, the cells were dissociated with TrypLE Select, transferred at a concentration of 1×10^6 cells/mL in AK03N medium (Ajinomoto Co., Inc.) to a low-attachment 6-well plate, and cultured for 24 hours on a rotary shaker (95 rpm). Then, the medium was replaced with AK03N-based methionine-depleted medium KA01, and the cells were cultured for 5 hours. Then, the medium was replaced with M1-1 AKM medium, and the cells were cultured for 24 hours (stage 1-1). The cells were cultured for 2 days in M1-2 AKM medium (stage 1-2), subsequently cultured for 2 days in M2 AKM medium (stage 2-1), cultured for 2 days in S2 medium (stage 2-2), cultured for 2 days in S3 medium (stage 3), cultured for 5 days in S4 medium (stage 4), cultured for 4 days in S5-1 medium (stage 5-1), and cultured for 3 days in S5-2 medium (stage 5).
# In the case of evaluating the effectiveness of a compound for a differentiation rate and a cell function, a test compound and a negative control ([…]), and immunostaining was carried out on days 14 (at the completion of stage 4) and 21 (at the completion of stage 5) in order to confirm an effect on positivity to insulin, NKX6.1, and PDX1. GSIS assay was carried out on day 21.
# Immunocytochemistry was carried out according to a general protocol using the following antibodies: rabbit anti-MAFA (Abcam; ab26405; 1/100×), goat anti-PDX1 (R&D systems; AF2419; 1/100×), mouse anti-NKX6.1 (Developmental Studies Hybridoma Bank, University of Iowa; F64A6B4; 1/100×), guinea pig anti-INSULIN (Dako; IR002; 1/10×), mouse anti-INSULIN (Sigma-Aldrich; 12018; 1/1000×), rabbit anti-C-peptide (Cell Signaling; 4593; 1/100×), rabbit anti-GFP (MBL International Corp; 598; 1/1000×), and mouse anti-GLUCAGON (Sigma-Aldrich; G2654; 1/1000×). […]
# [4] = tested on: iPS-β cells (RpChiPSC771); test: GSIS function assay of iPS-β cells from sphere culture of RPChiPSC771, protocol #1; assay type: cell-based, human; settings: 1 μM, treatment between stages 3 and 4
# Method: as §1
# Batch-mode GSIS assay was carried out as described below. […] The C-peptide concentration of a sample was measured using alphaLISA C-peptide kit (PerkinElmer, AL299F) or C-peptide ELISA and corrected with the DNA content of the cells used in the GSIS assay.
# [5] = tested on: iPS-β cells; test: Response of iPS-β cells to insulin secretagogues (c-peptide secretion); assay type: cell-based, human; settings: glibenclamide, exendin 4, and KCl
# Method: Batch-mode GSIS assay was carried out as described below. An aliquot of the obtained human iPS-β cells was washed with LG-KRBH as described above. Then, the cells were incubated for 30 minutes or 1 hour in LG-HKRB buffer and subsequently incubated for the same time thereas in HG-HKRB buffer. In some experiments, after washing of the cells, the cells were dispensed into some aliquots and incubated for 1 hour in HG-HKRB buffer containing 0.01% DMSO or several types of insulin secretagogues. The C-peptide concentration of a sample was measured using alphaLISA C-peptide kit (PerkinElmer, AL299F) or C-peptide ELISA and corrected with the DNA content of the cells used in the GSIS assay.
smiles,measurement,setting,value
"O=C1CCC(C(=O)Nc2ncc(-c3ccc(OC(F)(F)F)cc3)s2)n2cccc21 (centres unmarked) [Synthesis Example 9, 8-Oxo-N-[5-[4-(trifluoromethoxy)phenyl]thiazol-2-yl]-6,7-dihydro-5H-indolizine-5-carboxamide]",differentiation into iPS-β cells (INS+ cells),[1],stronger efficacy than that of the original compound K-1
same,differentiation into INSULIN+PDX1+ double-positive cells,[2],enhanced differentiation
same,differentiation depending on time window of addition,[3]; added in a time window including stage 3,enhance differentiation most effectively
same,"differentiation into INSULIN+NKX6.1+, NKX6.1+PDX1+ double-positive and INSULIN+NKX6.1+PDX1+ triple-positive cells","[3]; protocol #2, end of stage 4 and later",enhanced differentiation
same,production of NKX6.1+ and INSULIN+NKX6.1+ double-positive cells,[3]; treatment particularly in stages 3 to 5,promoted the production
same,glucose stimulated insulin secretion (GSIS) activity of obtained iPS-β cells,[4],enhanced
same,insulin secretion dynamics in step-wise time-course measurement,[4],rapid first-phase insulin secretion and long-lasting second-phase insulin secretion
same,c-peptide secretion by stimulation with insulin secretagogues,[5],enhanced c-peptide secretion
